Experimental data taken from patent US20180179256A1 (priority 2015, published 2018).

Test system: HLA-DR
Assay type: cell-based, human

Sequence: RGILKRNSSSSSTDS [5-HUMAN-B, reference compound]
- % Inhibition by HLA-DR blocking Ab: 100%
